Measurements from PubChem BioAssay AID1963869 (Molecular Pharmacology Branch, DTP, NCI, 2024).

Test system: KRAS patient-derived spheroids with HUVEC/MSC, viability
Experiment: Anticancer human tumor 323965-272-R-J2-PDC patient-derived pancreatic carcinoma cell line growth inhibition [KRAS2]
Conditions: for IC50: curve of first compound; for viability, T/C: stronger effect = lower value
How it was run: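 Combination screen of spheroid viability in tumor-cell co-cultures with endothelial (HUVEC) and mesenchymal stem cell stroma. Each agent was tested in half-log dilutions, topping at clinical Cmax or at 10 microM without a known Cmax.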

[1] = second compound 0.1 µM, first compound 0.01 µM
[2] = second compound 0.1 µM, first compound 0.0316 µM
[3] = second compound 0.1 µM, first compound 0.1 µM
[4] = second compound 0.1 µM, first compound 0.316 µM
[5] = second compound 0.1 µM, first compound 1 µM
[6] = second compound 0.1 µM, first compound 3.16 µM
[7] = second compound 0.316 µM, first compound 0.01 µM
[8] = second compound 0.316 µM, first compound 0.0316 µM
[9] = second compound 0.316 µM, first compound 0.1 µM
[10] = second compound 0.316 µM, first compound 0.316 µM
[11] = second compound 0.316 µM, first compound 1 µM
[12] = second compound 0.316 µM, first compound 3.16 µM
[13] = second compound 1 µM, first compound 0.01 µM
[14] = second compound 1 µM, first compound 0.0316 µM
[15] = second compound 1 µM, first compound 0.1 µM
[16] = second compound 1 µM, first compound 0.316 µM
[17] = second compound 1 µM, first compound 1 µM
[18] = second compound 1 µM, first compound 3.16 µM
[19] = second compound 3.16 µM, first compound 0.01 µM
[20] = second compound 3.16 µM, first compound 0.0316 µM
[21] = second compound 3.16 µM, first compound 0.1 µM
[22] = second compound 3.16 µM, first compound 0.316 µM
[23] = second compound 3.16 µM, first compound 1 µM
[24] = second compound 3.16 µM, first compound 3.16 µM
[25] = second compound 10 µM, first compound 0.01 µM
[26] = second compound 10 µM, first compound 0.0316 µM
[27] = second compound 10 µM, first compound 0.1 µM
[28] = second compound 10 µM, first compound 0.316 µM
[29] = second compound 10 µM, first compound 1 µM
[30] = second compound 10 µM, first compound 3.16 µM
[31] = second compound 0.1 µM, first compound 10 µM
[32] = second compound 0.316 µM, first compound 10 µM
[33] = second compound 1 µM, first compound 10 µM
[34] = second compound 3.16 µM, first compound 10 µM
[35] = second compound 10 µM, first compound 10 µM
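Also: spheroids exposed to agents for 7 days.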
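For viability, T/C in this document: 100% = DMSO vehicle control viability.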

SMILES | IC50 (second compound 0.1 µM) | IC50 (second compound 0.316 µM) | IC50 (second compound 1 µM) | IC50 (second compound 3.16 µM) | IC50 (second compound 10 µM) | viability, T/C [2] | viability, T/C [3] | viability, T/C [4] | viability, T/C [5] | viability, T/C [8] | viability, T/C [9] | viability, T/C [10] | viability, T/C [11] | viability, T/C [14] | viability, T/C [15] | viability, T/C [16] | viability, T/C [17] | viability, T/C [20] | viability, T/C [21] | viability, T/C [22] | further results
CC1COCCN1c1cc(-c2ccnn2C)c2ccnc(-c3ccn[nH]3)c2n1 (stereo not given) + COc1cc2nc(C)nc(NC(C)c3cc(N)cc(C(F)(F)F)c3)c2cc1OC1CCOC1 | 14.9 nM | 11 nM | 11.3 nM | 10.5 nM | < 10 nM | 26.8% | 16.5% | 12.8% | 11.5% | 24.2% | 13.1% | 12% | 11.6% | 21.4% | 12.4% | 10.3% | 10% | 19.5% | 9.99% | 9.71% | viability, T/C [1]: 62%; viability, T/C [6]: 12.2%; viability, T/C [7]: 52.5%; viability, T/C [12]: 11.6%; viability, T/C [13]: 53.5%; viability, T/C [18]: 11%; viability, T/C [19]: 51.4%; viability, T/C [23]: 9.06%; viability, T/C [24]: 9.91%; viability, T/C [25]: 41.9%; viability, T/C [26]: 20.9%; viability, T/C [27]: 9.39%; viability, T/C [28]: 9.15%; viability, T/C [29]: 7.92%; viability, T/C [30]: 6.55%
CC1OCC2(CCN(c3cnc(Sc4ccnc(N)c4Cl)c(N)n3)CC2)C1N (stereo not given) + COc1cc2nc(C)nc(NC(C)c3cc(N)cc(C(F)(F)F)c3)c2cc1OC1CCOC1 | 118 nM | 54.9 nM | < 31.6 nM | < 31.6 nM | < 31.6 nM | 66.7% | 49.4% | 41.4% | 33% | 52.5% | 47.9% | 40.2% | 27.5% | 43.5% | 34.6% | 31.1% | 24.7% | 46.6% | 33.7% | 29.6% | viability, T/C [6]: 24.1%; viability, T/C [31]: 21.1%; viability, T/C [12]: 26.1%; viability, T/C [32]: 19.1%; viability, T/C [18]: 19.4%; viability, T/C [33]: 20.6%; viability, T/C [23]: 17.7%; viability, T/C [24]: 13.8%; viability, T/C [34]: 16.9%; viability, T/C [26]: 49.2%; viability, T/C [27]: 35.6%; viability, T/C [28]: 17.5%; viability, T/C [29]: 12.9%; viability, T/C [30]: 11.5%; viability, T/C [35]: 11.4%
CCN1CCN(Cc2ccc(Nc3ncc(F)c(-c4cc(F)c5nc(C)n(C(C)C)c5c4)n3)nc2)CC1 + COc1cc2nc(C)nc(NC(C)c3cc(N)cc(C(F)(F)F)c3)c2cc1OC1CCOC1 | 90.2 nM | 25.9 nM | 32.6 nM | 21.9 nM | 75.6 nM | 59.5% | 48.2% | 44.4% | 51.4% | 50% | 41.7% | 37.8% | 48.3% | 51.4% | 42.9% | 41% | 48.3% | 43.8% | 39.1% | 32.7% | viability, T/C (second compound 0.1 µM, first compound 0.00316 µM): 85.5%; viability, T/C [1]: 78.3%; viability, T/C (second compound 0.316 µM, first compound 0.00316 µM): 75.2%; viability, T/C [7]: 59%; viability, T/C (second compound 1 µM, first compound 0.00316 µM): 65.7%; viability, T/C [13]: 59.9%; viability, T/C (second compound 3.16 µM, first compound 0.00316 µM): 85.2%; viability, T/C [19]: 64%; viability, T/C [23]: 49.5%; viability, T/C (second compound 10 µM, first compound 0.00316 µM): 86.6%; viability, T/C [25]: 74%; viability, T/C [26]: 53.4%; viability, T/C [27]: 48.7%; viability, T/C [28]: 39.9%; viability, T/C [29]: 22.4%
CCNC(=O)CC1N=C(c2ccc(Cl)cc2)c2cc(OC)ccc2-n2c(C)nnc21 (stereo not given) + COc1cc2nc(C)nc(NC(C)c3cc(N)cc(C(F)(F)F)c3)c2cc1OC1CCOC1 | 247 nM | 246 nM | 238 nM | 189 nM | 170 nM | 80.3% | 68.8% | 44.2% | 34.2% | 69.8% | 64.2% | 45.4% | 32.5% | 76.3% | 65.3% | 44.8% | 32% | 74.5% | 58.8% | 43.9% | viability, T/C [6]: 30.3%; viability, T/C [31]: 28.9%; viability, T/C [12]: 26.8%; viability, T/C [32]: 25.2%; viability, T/C [18]: 30.2%; viability, T/C [33]: 25.5%; viability, T/C [23]: 29.3%; viability, T/C [24]: 26.2%; viability, T/C [34]: 26.6%; viability, T/C [26]: 72.8%; viability, T/C [27]: 60.4%; viability, T/C [28]: 37.7%; viability, T/C [29]: 29%; viability, T/C [30]: 28%; viability, T/C [35]: 25.7%
Cn1nccc1Nc1nccc(-c2cc3c(s2)C(C)(C)N(CCN2CCOCC2)C3=O)n1 + COc1cc2nc(C)nc(NC(C)c3cc(N)cc(C(F)(F)F)c3)c2cc1OC1CCOC1 | 343 nM | 258 nM | 188 nM | 324 nM | 358 nM | 70.7% | 76.1% | 50.3% | 38.7% | 75.3% | 61.8% | 48.1% | 34.8% | 65.9% | 57.8% | 43% | 35.6% | 70.7% | 68.1% | 46.3% | viability, T/C [6]: 30.8%; viability, T/C [31]: 29.9%; viability, T/C [12]: 30.6%; viability, T/C [32]: 26.1%; viability, T/C [18]: 30%; viability, T/C [33]: 27.4%; viability, T/C [23]: 38%; viability, T/C [24]: 29.1%; viability, T/C [34]: 22.6%; viability, T/C [26]: 75.5%; viability, T/C [27]: 66.9%; viability, T/C [28]: 51.7%; viability, T/C [29]: 36.7%; viability, T/C [30]: 22.7%; viability, T/C [35]: 24.9%
